Laboratory results published in patent US4436732A, “Medicated compound for treating diseases infected by virus of the herpes group” (priority 1981, dated 1984).

How the values were obtained:
[1] = effect on the intensity of bile secretion, acute tests; assay type: in vivo, cats; conditions: 20 and 50 mg/kg
Source text: In acute tests on cats the effect of the active principle on the intensity of bile secretion has been studied.

[2] = acute toxicity and tolerance; set-up: species or system white mice, rats, guinea pigs and dogs; conditions: in vivo
Method: The study of an acute toxicity and tolerance of the active principle and the medicated compound in the form of tablets has been carried out on white mice, rats, guinea pigs and dogs with different modes of administration.
The active principle and tablets of the are administered in the form of an aqueous suspension hypodermally, intraperitoneally and in stomach.

[3] = cardiorhythmic effect on the aconitine model of arrhythmia; assay type: in vivo, rat; conditions: intravenous, 10 and 50 mg/kg
Method: The cardiorhythmic effect of the active principle has been studied on the rat's aconitine model of arrhythmia upon its intravenous administration in the doses of 10 and 50 mg/kg.

[4] = antidiabetic effect: glucose in blood under alimentary carbohydrate load; assay type: in vivo, rabbits; conditions: per os
Method: To reveal the antidiabetic effect of the active principle, its effect on the content of glucose in rabbit's blood under the conditions of alimentary carbohydrate load has been studied. The active principle is administered in doses of 50 and 100 mg/kg once per os through a tube in a 1% starch paste. The experiment scheme is the following: the content of glucose in blood is determined in rabbit's blood on an empty stomach, and 40 minutes thereafter the content of glucose is again determined in blood. Afterwards, glucose is administered to the rabbits at the rate of 1.5 g/kg and the content of glucose in blood is determined 15, 30, 45, 60, 90 and 120 minutes after the administration thereof.

[5] = cardiological effect / electrocardiographic characteristics; assay type: in vivo, rabbits; conditions: for increase of amplitude of cardiac contractions: P=0.05
Source text: (§1) The cardiological effect of the active principle has been studied in experiments on an isolated cat's heart; the effect on electrocardiographic characteristics has been studied in experiments on rabbits; the vasodilative effect--on vessels of an isolated rabbit's ear; the spasmolytic effect--on acetylcholine and barium spasms of smooth muscles of an isolated section of a rat's small intestine.
The studies have shown that upon the intravenous administration to rabbits of the active principle in the dose of 20 mg/kg it causes increased amplitude of cardiac contractions by 34% (P=0.05), in the dose of 50 mg/kg--by 41% (P=0.05); rarefaction of the rhythm of cardiac contractions in rabbits by 10-18% on the average and increase of the voltage of the peak P by 32%. […] A slight increase of the voltage of the peak P on the average by 20% is observed.

[6] = tested on: smooth muscles of an isolated section of a rat's small intestine; assay: spasmolytic effect on acetylcholine and barium spasms of smooth muscles of an isolated section of small intestine
Source text: as §1

teratogenic activity = assay type: in vivo, rats; conditions: 10 and 100 mg/kg per os daily for 30 days
Method: The study of the teratogenic activity of the active principle has been carried out on 15 couples of adult rats weighing 350 g divided into 3 groups of 5 couples in each. The females of the first group were daily administred 10 mg/kg of the active principle per os for 30 days until the birth of small rats; the females of the second group were administered 100 mg/kg of the active principle during the same period; the females of the third group were the control.

[7] = intra-stomach, 50 and 150 mg/kg

SMILES: O=c1c2cc(O)c(O)cc2oc2cc(O)c([C@@H]3O[C@H](CO)[C@@H](O)[C@H](O)[C@H]3O)c(O)c12 [active principle, 2-C-β-D-glucopyranosyl-1,3,6,7-tetraoxyxanthone]
- bile secretion intensity [1]: does not increase
- mutagenous activity (mutagenous activity): no mutagenous activity
- toxicity (overall) [2]: low-toxic
- LD50 ([2]; ip, intraperitoneal): 3000 to 4000 mg/kg
- LD50 ([2]; po, in-stomach): 10000 mg/kg
- LD50 ([2]; sc, hypodermal): > 5000 mg/kg
- cardiorhythmic effect [3]: no cardiorhythmic effect
- effect on the glycemic curve ([4]; 50 mg/kg): no effect
- increase of glucose tolerance ([4]; 100 mg/kg, uncertainly increased): 14%
- effect on duration of intervals of the cardiac cycle [5, 7]: no substantial effect
- effect on the rhythm of cardiac contractions [5, 7]: no substantial effect
- increase of the voltage of the peak P ([5]; intra-stomach, 50 and 150 mg/kg, on the average): 20%
- increase of the voltage of the peak P ([5]; intravenous, rabbits): 32%
- increase of amplitude of cardiac contractions ([5]; intravenous, rabbits, 20 mg/kg): 34%
- increase of amplitude of cardiac contractions ([5]; intravenous, rabbits, 50 mg/kg): 41%
- rarefaction of the rhythm of cardiac contractions ([5]; intravenous, rabbits, on the average): 10-18%
- cardiostimulant effect ([5]; rabbit, in vivo): slight cardiostimulant effect
- spasmolytic effect [6]: no vasodilative and spasmolytic effect
- teratogenic properties (teratogenic activity): no teratogenic properties
